Measurements as given in patent US20250082651A1, “GANAXOLONE FOR USE IN TREATING GENETIC EPILEPTIC DISORDERS” (Marinus Pharmaceuticals, Inc., priority 2017, published 2025).
Where “and” joins values, the source holds several entries; their conditions need not be identical. Equal values may be shown once.

Experiments:
dogs = test: 1-year (chronic oral) dog toxicity study; format: in vivo
Text: There was a physiologically normal shortening of the PR and QT interval in response to the higher heart rate. There was no effect on QRS duration or QTc interval.
In the oral dosing programme, a therapeutic index from non-human NOAEL levels to the adult partial-onset seizure epilepsy and the pharmacokinetics study is approximately 2 to 3-fold in dogs (sedation).

female rats = test: Pulmonary safety pharmacology in female rats; format: in vivo, rat; details: doses up to 40 mg/kg
rats = test: Oral and IV single- and repeat-dose toxicology studies; format: in vivo, rat
[1] = system: children with Lennox-Gastaut Syndrome; test: Phase 2 open-label trial, LGS cohort, seizure efficacy; format: in vivo, human
Text: Example 3 concerns a Phase 2 Multicenter, Open-Label Proof-of-Concept Trial of ganaxolone (GNX) in cohorts of children having genetic epilepsies (PCDH19, CDKL5 LGS, and CSWS) (ClinicalTrials.gov Identifier: NCT02358538). There were 11 female children with PCDH19 epilepsy between 5-16 years old with a confirmed genetic mutation. There were 6 female and 1 male children with confirmed genetic mutations in the CDKL5 cohort. There were 10 children in the Lennox Gastaut Syndrome cohort. Two children with CSWS were enrolled into the study. The study was conducted with 12 weeks baseline, and up to 26 weeks of treatment followed by a 52 week open label treatment. The primary efficacy was the percentage change in seizure frequency per 28 days relative to baseline calculated using daily seizure diary. [Time Frame: 26 weeks]. Secondary Outcome Measures were: Clinician Global Impression of Change score as assessed by questionnaire. [Time Frame: 26 Weeks]; Patient Global Impression of Change score as assessed by questionnaire. [Time Frame: 26 Weeks]; Evaluation of safety and tolerability of open-label ganaxolone as adjunctive therapy for uncontrolled seizures in children with rare genetic epilepsies, based on adverse event log and other clinical safety assessments. [Time Frame: 26 weeks]; Responder rates [Time Frame: 26 weeks]; and Seizure free days [Time Frame: 26 weeks].
Following screening and baseline evaluations, consenting patients enrolled into a 26-week study during which investigators were allowed to flexibly dose ganaxolone up to a dose of 1,800 mg/day for patients whose body weight was >30 kg, or up to 63 mg/kg/day for patients whose body-weight was <30 kg. The primary efficacy measure is % change from baseline in the 28-day seizure frequency count. Safety and tolerability were within the secondary objectives of the study.
In this study, oral ganaxolone suspension or capsules were administered up to a total of 63 mg/kg/day (maximum 1800 mg/day) over 2-4 weeks. About six-eight titration steps are used, depending on the size of the patient. Children larger than 30 kg may take the ganaxolone capsules. The ganaxolone oral suspension was administered through an oral dosing syringe three times daily. The ganaxolone capsules were administered twice daily. The patients experience better absorption of the ganaxolone with meals (milk).
After establishing baseline seizure frequency, qualifying subjects entered the study and were treated with open-label ganaxolone oral suspension or ganaxolone capsules at doses up to a maximum of 1800 mg/day for up to 6 months. Maximum study participation was 94 weeks: a screening period up to 12 weeks to establish baseline seizure frequency, up to 26 weeks of treatment, a 52 week extension for subjects who benefited from ganaxolone treatment, and up to 4 weeks of down titration period. […] Refractive cases of LGS or CSWS that had prior response to steroid or ACTH could also have been enrolled.
Ganaxolone oral suspension was administered through an oral dosing syringe by parent or legal guardian 3 times daily (TID), following the morning, noon, and evening meal or snack. Each dose was separated by a minimum of 4 hours and a maximum of 8 hours. A missed dose of ganaxolone could have been taken up to 4 hours before the next scheduled dose; otherwise, the missed dose was not to be given.
Ganaxolone capsules were administered with a glass of water or other liquid 2 times daily (BID), following the morning and evening meal or snack. Ganaxolone was provided as either an oral suspension or capsules based on the subject's weight at study entry. Ganaxolone oral suspension was administered through an oral dosing syringe TID by a parent or guardian, following the morning, midday, and evening meal or snack. Each dose was separated by a minimum of 4 hours and a maximum of 8 hours. Ganaxolone capsules were administered BID, following the morning and evening meal or snack. […]

[2] = Multiple dose PK, 0.3 micron capsules 600, 800, 1000 mg BID escalating, healthy volunteers; format: in vivo, human; details: for Cmax: steady state
Experimental: Multiple-dose studies of oral ganaxolone formulations were conducted in healthy volunteers. The 0.3 micron ganaxolone capsules were administered BID with a standard meal or snack for 7 days and at increasing doses.
Steady-state was reached within 3 days of administration of 600, 800 and 1000 mg BID ganaxolone to healthy subjects. The medium and high dose regimens were started after 3 days on the low dose and medium dose regimens, respectively. In general, ganaxolone was rapidly absorbed following PO administration and the mean Cmax was attained within 2 hours after multiple dosing; median Tmax was independent of dose level. […] Proportionality was conserved from 600 mg to 800 mg.
Values at Day 6.5, 9.5 and 12.5 are from evening samples collected 12 hrs after the last dose on PK sampling days. Subjects received 600 mg ganaxolone BID on Days 4-6; 800 mg ganaxolone BID on Days 7-9; and 1000 mg ganaxolone BID on Days 10-12.

Which “Effect on QRS duration or QTc” value (dogs; 1-year dog study) does the source give for CC(=O)[C@H]1CC[C@H]2[C@@H]3CC[C@H]4C[C@](C)(O)CC[C@]4(C)[C@H]3CC[C@]12C [Ganaxolone, 3α-hydroxy-3β-methyl-5α-pregnan-20-one] here?
Its value is “no treatment effect”.

And the ECG finding (dogs; 1-year dog study, after 3 months of dosing, 4 animals, >190 bpm)?
Its ECG finding is “transient sinus tachycardia”.

And the Cmax (dogs; 1-year dog toxicity study)?
Its Cmax is over 1500 ng/mL.

And the “Findings at mean Cmax greater than 1500 ng/mL” value (dogs; chronic oral toxicity study in dogs, 10 and 15 mg/kg/day)?
The value was “increased weight and total plasma cholesterol levels”.

And the “Therapeutic index from non-human NOAEL levels” value (dogs; oral dosing programme, dogs (sedation))?
Its value is 2 to 3 fold.

What about the Pulmonary effects (female rats) of the same compound?
The Pulmonary effects was “No pulmonary effects”.

What about the “Most common effect in toxicology studies” value (rats; oral and IV programmes) of the same compound?
The value was “dose-related sedation”.

And the “Findings correlated to hepatic enzyme induction” value (rats; rats, 6-month study, more pronounced in females)?
The value was “increased liver weights and dose related hepatocellular hypertrophy”.

And the “28-day seizure frequency, sum of individual seizures and clusters, post-baseline 26-week open-label period, Mean (SD)” value ([1]; LGS N=10, MITT)?
The value was 263.66 (502.176).

What about the “28-day seizure frequency, sum of individual seizures and clusters, post-baseline 26-week open-label period, Median” value ([1]; LGS N=10, MITT) of the same compound?
Its value is 65.08.

And the “28-day seizure frequency, sum of individual seizures and clusters, post-baseline through Month 3 (Day 91), Mean (SD)” value ([1]; LGS N=10, MITT)?
Its value is 263.91 (502.477).

What about the “28-day seizure frequency, sum of individual seizures and clusters, post-baseline through Month 3 (Day 91), Median” value ([1]; LGS N=10, MITT) of the same compound?
Its value is 75.91.

And the “Percent change from baseline (at Day 91), 28-day seizure frequency, sum of individual seizures and clusters, Mean (SD)” value ([1]; LGS N=10, MITT)?
Its value is 122.10% and 122.10 (321.124) %.

What about the “Percent change from baseline (at Week 26), 28-day seizure frequency, sum of individual seizures and clusters, Mean (SD)” value ([1]; LGS N=10, MITT) of the same compound?
The value was 125.38% and 125.38 (319.051) %.

And the “Percent change from baseline (at Week 26), 28-day seizure frequency, sum of individual seizures and clusters, Median” value ([1]; LGS N=10, MITT)?
The value was −9.19%.

And the “Mean percent change in 28-day total seizure frequency from baseline to Week 26” value ([1]; LGS cohort, PP Population)?
Its value is 18.43%.

What about the “Median percent change in 28-day total seizure frequency from baseline to Week 26” value ([1]; LGS cohort, PP Population) of the same compound?
The value was 11.15%.

And the “Clinical global impression of improvement: much improved” value ([1]; LGS cohort, end of Week 26)?
The value was 1 subject.

What about the “Clinical global impression of improvement: very much improved” value ([1]; LGS cohort, end of Week 26) of the same compound?
The value was 1 subject.

And the “Percent change from baseline (at Day 91), 28-day individual seizure frequency, Mean (SD)” value ([1]; LGS n=9, MITT)?
Its value is 226.72% and 226.72 (496.750) %.

And the “Percent change from baseline (at Day 91), 28-day individual seizure frequency, Median” value ([1]; LGS n=9, MITT)?
Its value is −9.56%.

What about the “Percent change from baseline (at Week 26), 28-day individual seizure frequency, Mean (SD)” value ([1]; LGS n=9, MITT) of the same compound?
The value was 229.90% and 229.90 (494.164) %.

What about the “Percent change from baseline (at Week 26), 28-day individual seizure frequency, Median” value ([1]; LGS n=9, MITT) of the same compound?
Its value is 5.04%.

What about the “28-day individual seizure frequency, post-baseline 26-Week open-label period, Mean (SD)” value ([1]; LGS n=10, MITT) of the same compound?
The value was 257.07 (503.453).

And the “28-day individual seizure frequency, post-baseline 26-Week open-label period, Median” value ([1]; LGS n=10, MITT)?
The value was 55.93.

What about the “28-day individual seizure frequency, post-baseline through Month 3 (Day 91), Mean (SD)” value ([1]; LGS n=10, MITT) of the same compound?
The value was 256.48 (503.934).

What about the “28-day individual seizure frequency, post-baseline through Month 3 (Day 91), Median” value ([1]; LGS n=10, MITT) of the same compound?
Its value is 64.71.

And the Time to steady-state ([2]; 600, 800 and 1000 mg BID, 0.3 micron capsules)?
The Time to steady-state was at most 3 days.

And the “Mean fluctuation at steady-state” value ([2]; 600 to 1000 mg BID)?
Its value is 172% to 191%.

And the Cmax ([2]; human, plasma, oral, 600 mg BID, 0.3 micron capsules)?
The Cmax was 224 ng/mL.

And the Cmax ([2]; human, plasma, oral, 800 mg BID, 0.3 micron capsules)?
The Cmax was 263 ng/mL.

What about the Cmax ([2]; human, plasma, oral, 1000 mg BID, 0.3 micron capsules) of the same compound?
The Cmax was 262 ng/mL.

And the clearance ([2]; human, plasma, oral, 600 to 1000 mg BID, read-out: Mean apparent total body CL at steady-state)?
Its clearance is 10200 to 12800 mL/min.

And the “Dose through which pharmacokinetics are linear” value ([2]; immediate release 0.3-micron particles, given BID)?
Its value is “approximately 1200 mg/day”.
